We go through seven molecules from PubChem BioAssay (NCI).

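Method: 48-hour compound exposure of cells in 96-well plates, five concentrations, linear interpolation of endpoints. Abbreviation: GI50, concentration required for 50% inhibition of growth. At the TGI there is no net growth.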

Among the test systems are A549 NSCLC; DU-145 prostate; K-562 leukemia; MOLT-4 leukemia; SK-MEL-28 melanoma; SK-OV-3 ovarian; SN12C renal; SR leukemia; T-47D breast; UO-31 renal.
Holding throughout (test): NCI anticancer screen, dose series, 48 h

Regarding `O=C(O[C@H]1CN[C@H](C#Cc2cc3ncnc(Nc4ccc(Cc5ccccc5)cc4)c3s2)C1)N1CCOCC1`, the GI50 in the test on A549 NSCLC is 4.86 µM; in the test on DU-145 prostate it was 4 µM; in the test with K-562 leukemia it was 8.44 µM; in the test on MOLT-4 leukemia it was 6.93 µM; in the test on SK-MEL-28 melanoma it was 4.78 µM; with SK-OV-3 ovarian it was 0.033 µM. In addition, the GI50 in the test on SN12C renal is 4.08 µM; in the test with SR leukemia it was 11.2 µM; in the test with T-47D breast, 1.86 µM; with UO-31 renal, 3.36 µM. For the same molecule, the TGI in the test on A549 NSCLC is above 25 µM; in the test with DU-145 prostate it was 11 µM; in the test with K-562 leukemia it was above 25 µM; with MOLT-4 leukemia, above 25 µM; in the test on SK-MEL-28 melanoma, 10.9 µM; with SK-OV-3 ovarian, above 25 µM. Further, the TGI in the test with SN12C renal, in the test with SR leukemia, in the test on T-47D breast and with UO-31 renal was above 25 µM in each case.

As to `Oc1ccc(Cl)cc1Cc1cc(Cl)cc(Cc2cc(Cl)ccc2O)c1O`, the TGI with A549 NSCLC is 10.6 µM; in the test on DU-145 prostate, 13 µM; in the test on K-562 leukemia it was 10.3 µM; with MOLT-4 leukemia, 8.67 µM; in the test on SK-MEL-28 melanoma, 14.6 µM; in the test with SK-OV-3 ovarian it was 8.5 µM. Moreover, the TGI in the test on SN12C renal came to 8.21 µM; in the test on SR leukemia it was 11.6 µM; with T-47D breast, 7.56 µM; in the test on UO-31 renal it was 10.3 µM.

Consider `O=C(c1ccc(F)c(F)c1Nc1ccc(I)cc1F)N1CC(O)([C@H]2CCCCN2)C1`, for which the GI50 was 2.37 µM in the test on A549 NSCLC; 9.76 µM in the test on DU-145 prostate; 3.53 µM in the test with K-562 leukemia; 8.46 µM in the test with MOLT-4 leukemia; 0.0953 µM with SK-MEL-28 melanoma; 8.15 µM in the test with SK-OV-3 ovarian. Besides, the GI50 in the test with SN12C renal is 3.96 µM; with SR leukemia, 3.94 µM; with T-47D breast, 11.6 µM; in the test on UO-31 renal it was 1.42 µM. Further, the TGI in the test with A549 NSCLC turned out to be 18 µM; in the test on DU-145 prostate, 22.3 µM; in the test with K-562 leukemia, 13.5 µM; in the test with MOLT-4 leukemia it was 23.3 µM; with SK-MEL-28 melanoma, 3.45 µM; with SK-OV-3 ovarian, 21.1 µM. Moreover, the TGI in the test with SN12C renal is 19.7 µM; with SR leukemia it was 17.8 µM; in the test with T-47D breast, 26 µM; in the test on UO-31 renal, 13.9 µM.

`O=C(/C=C\c1cccc([N+](=O)[O-])c1)c1ccccc1`: the GI50 in the test on A549 NSCLC is 21 µM; with DU-145 prostate, 2.35 µM; in the test on K-562 leukemia, 2.21 µM; in the test with MOLT-4 leukemia, 3.19 µM; in the test on SK-MEL-28 melanoma, 2.17 µM; in the test on SK-OV-3 ovarian, 15 µM. For the same molecule, the GI50 in the test with SN12C renal is 3.71 µM; in the test on SR leukemia, 2.17 µM; in the test with T-47D breast it was 2.33 µM; in the test on UO-31 renal it was 1.79 µM. Further, the TGI with A549 NSCLC was 68.2 µM; in the test on DU-145 prostate, 5.88 µM; in the test on K-562 leukemia it was above 100 µM; with MOLT-4 leukemia it was above 100 µM; with SK-MEL-28 melanoma, 4.6 µM; in the test on SK-OV-3 ovarian it was 30.4 µM. Further, the TGI in the test on SN12C renal was 14.1 µM; in the test on SR leukemia, above 100 µM; in the test on T-47D breast it was 6.1 µM; with UO-31 renal, 4.11 µM.

Turning to `N#Cc1cc(-c2ccccc2)[nH]c1-c1nccc2ccccc12`, the GI50 was 13.9 µM with A549 NSCLC; 32.3 µM in the test with DU-145 prostate; 6.04 µM in the test on K-562 leukemia; 7.15 µM in the test with MOLT-4 leukemia; 26.5 µM in the test on SK-MEL-28 melanoma; 17.8 µM with SK-OV-3 ovarian. The GI50 is 23.9 µM in the test on SN12C renal, 5.72 µM in the test with SR leukemia, 3.06 µM with T-47D breast and 6.81 µM with UO-31 renal. Also, the TGI was above 100 µM in the test with A549 NSCLC; above 100 µM with DU-145 prostate; above 100 µM with K-562 leukemia; 52.2 µM in the test on MOLT-4 leukemia; above 100 µM in the test on SK-MEL-28 melanoma; above 100 µM in the test with SK-OV-3 ovarian. In addition, the TGI with SN12C renal was above 100 µM; in the test with SR leukemia, above 100 µM; in the test on T-47D breast, 45.2 µM; in the test with UO-31 renal it was above 100 µM.

With `Cn1c(=O)c(Sc2ccccc2F)cc2cnc(NC3CCOCC3)nc21`, the GI50 in the test with A549 NSCLC, in the test with DU-145 prostate, in the test on K-562 leukemia, in the test with MOLT-4 leukemia, with SK-MEL-28 melanoma and with SK-OV-3 ovarian was above 25 µM each time. The GI50 with SN12C renal, in the test on SR leukemia, in the test on T-47D breast and in the test with UO-31 renal was above 25 µM each time. Also, the TGI in the test on A549 NSCLC, with DU-145 prostate, with K-562 leukemia, in the test on MOLT-4 leukemia, in the test with SK-MEL-28 melanoma and in the test on SK-OV-3 ovarian was above 25 µM each time. In addition, the TGI with SN12C renal, in the test with SR leukemia, in the test with T-47D breast and in the test on UO-31 renal was above 25 µM each time.

With `O=C(/C=C/c1ccccc1Cl)c1ccc(O)cc1`, the GI50 with A549 NSCLC was 7.33 µM; with DU-145 prostate it was 4.16 µM; with K-562 leukemia it was 3.12 µM; in the test with MOLT-4 leukemia, 5.64 µM; in the test on SK-MEL-28 melanoma, 11 µM; in the test on SK-OV-3 ovarian it was 12.1 µM. For the same molecule, the GI50 in the test on SN12C renal is 8.51 µM; with SR leukemia, 2.82 µM; with T-47D breast, 6.38 µM; in the test with UO-31 renal it was 4.85 µM. In addition, the TGI was 25.1 µM in the test with A549 NSCLC; 13.1 µM with DU-145 prostate; above 100 µM in the test with K-562 leukemia; above 57.6 µM in the test on MOLT-4 leukemia; 23 µM in the test on SK-MEL-28 melanoma; 25.9 µM in the test on SK-OV-3 ovarian. Further, the TGI with SN12C renal is 33.1 µM; in the test with SR leukemia, above 24.4 µM; in the test on T-47D breast it was 25.9 µM; in the test with UO-31 renal, 14 µM.
